For one molecule, Ki results are on record in BindingDB's records for patent US11091471 (Hoffmann-La Roche, 2021).

Structures are written as SMILES.

As usually defined, the Ki is a dissociation constant, usually derived from enzyme kinetics or from competition with a known ligand. Lower therefore signals a stronger hold on the target.

The target of this assay is Gamma-aminobutyric acid receptor subunit gamma-2 / Gamma-aminobutyric acid receptor subunit alpha-5 (Homo sapiens, UniProt P18507+P31644). The experiment in a line: Electrophysiology. The method, then:
Electrophysiological experiments were performed on days 3 to 5 after the micro-injection of mRNA. During the experiment the oocytes were constantly superfused by a solution containing (in mM) NaCl 90, KCl 1, HEPES 5, MgCl2 1, CaCl2 1 (pH 7.4). Oocytes were impaled by two glass microelectrodes (resistance: 0.4 MΩ) which were filled with a solution containing KCl 1M+K-acetate 1.5 M and voltage-clamped to −80 mV. The recordings were performed at room temperature using the Roboocyte two-electrode voltage clamp system (Multichannelsystem). After an initial equilibration period of 1.5 min GABA was added for 1.5 min at a concentration evoking approximately 20% of a maximal current response (EC20). After another rest interval of 2.5 min GABA was again added evoking a response of similar amplitude and shape. 0.5 min after the onset of this second GABA application the test compound, at a concentration corresponding to approximatively 30 fold its Ki, was added while GABA was still present. Current traces were recorded at a digitization rate of 10 Hz during and shortly before and after the GABA application.

Chain of Gamma-aminobutyric acid receptor subunit gamma-2 / Gamma-aminobutyric acid receptor subunit alpha-5 (P18507 40-475 limits assumed): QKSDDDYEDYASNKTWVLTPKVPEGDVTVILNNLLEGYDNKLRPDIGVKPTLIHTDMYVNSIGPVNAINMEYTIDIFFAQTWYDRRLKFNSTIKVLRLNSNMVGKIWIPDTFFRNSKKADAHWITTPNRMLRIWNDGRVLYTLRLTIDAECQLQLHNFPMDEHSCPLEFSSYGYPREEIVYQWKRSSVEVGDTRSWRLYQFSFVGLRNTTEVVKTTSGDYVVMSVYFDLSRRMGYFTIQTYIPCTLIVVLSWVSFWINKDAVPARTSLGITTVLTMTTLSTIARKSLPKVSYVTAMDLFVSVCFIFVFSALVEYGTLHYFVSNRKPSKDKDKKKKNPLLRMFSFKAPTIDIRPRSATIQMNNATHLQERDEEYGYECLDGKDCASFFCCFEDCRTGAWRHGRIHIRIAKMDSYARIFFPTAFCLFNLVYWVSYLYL
Chain of Gamma-aminobutyric acid receptor subunit gamma-2 / Gamma-aminobutyric acid receptor subunit alpha-5 (P31644 32-462 limits assumed): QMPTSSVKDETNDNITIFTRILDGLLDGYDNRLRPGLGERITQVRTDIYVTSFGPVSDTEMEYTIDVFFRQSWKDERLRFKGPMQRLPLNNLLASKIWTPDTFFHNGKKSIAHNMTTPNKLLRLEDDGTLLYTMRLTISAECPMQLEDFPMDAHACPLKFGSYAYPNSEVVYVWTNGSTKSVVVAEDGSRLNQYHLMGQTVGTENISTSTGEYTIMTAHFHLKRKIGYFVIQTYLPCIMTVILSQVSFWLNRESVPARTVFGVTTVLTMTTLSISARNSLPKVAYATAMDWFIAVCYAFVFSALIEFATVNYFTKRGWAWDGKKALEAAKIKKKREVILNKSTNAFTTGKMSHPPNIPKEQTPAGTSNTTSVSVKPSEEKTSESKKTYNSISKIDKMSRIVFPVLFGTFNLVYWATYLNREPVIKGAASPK

`Cc1onc(-c2ccc(Cl)nc2)c1COc1ccc(C(=O)N[C@H]2CCOC2)nn1` [US11091471, Example 160]: the inhibition constant Ki was determined as 9.3 nM.
